Assay results reported in the NIST ThermoML archive (doi:10.1016/j.jct.2018.04.007).

Experiments:
[1] = wn = mass fraction of the nth substance listed; conditions: 96.2 kPa, Liquid, w1 = 0.3; for viscosity: Cone and plate viscometry; for mass density: Pycnometric method; for thermal conductivity: transient hot wire
[2] = molar heat capacity at constant pressure; wn = mass fraction of the nth substance listed; conditions: 96.2 kPa, Liquid, DSC, w1 = 0.3

CC(O)CO (stereo unspecified) [1,2-propanediol] + O
Conditions	mass density, [1] [kg/m3]	molar heat capacity at constant pressure, [2] [J/K/mol]	thermal conductivity, [1] [W/m/K]	viscosity, [1] [mPa·s]
293.15 K	1023.1	89.44	0.443	3.02
303.15 K	1019.2	90	0.454	2.2
313.15 K	1014.5	90.52	0.463	1.61
323.15 K	1009	91.03	0.472	1.31
